Data on 15 molecules can be found in patent US20240409585A1, “MACROCYCLIC IMMUNOMODULATORS” (priority 2021, published 2024).

Numbered stars: 1 amine (or outer) side, 2 acyl side, 3 side chain; on linkers, the order of the positions; unused ones are H or OH. Bridge positions count the residues as written; N and C are the ends. Square brackets hold non-standard residues; d marks the D form. Peptide text beside a SMILES is read from it. * marks the point of attachment. ξ: configuration not given here. X33 = O=C([C@H](Cc1ccc(-c2cccc(Cl)c2)cc1)N[*:1])[*:2]; Phe(4-COOH) = N[C@@H](Cc1ccc(C(=O)O)cc1)C(=O)O; dPhe(3,4-F2) = N[C@H](Cc1ccc(F)c(F)c1)C(=O)O; Phe(4-CH2NH2) = NCc1ccc(C[C@H](N)C(=O)O)cc1; Bip = N[C@@H](Cc1ccc(-c2ccccc2)cc1)C(=O)O; Phe(3-Me) = Cc1cccc(C[C@H](N)C(=O)O)c1; Phe(4-F) = N[C@@H](Cc1ccc(F)cc1)C(=O)O; Bta = N[C@@H](Cc1csc2ccccc12)C(=O)O; Val(3-OH) = CC(C)(O)[C@H](N)C(=O)O; 2Thi = N[C@@H](Cc1cccs1)C(=O)O; Cha = N[C@@H](CC1CCCCC1)C(=O)O; Cit = NC(=O)NCCC[C@H](N)C(=O)O; Ile(3ξ) = CCC(C)[C@H](N)C(=O)O; Thr(3ξ) = CC(O)[C@H](N)C(=O)O; Ahp(2) = CCCCC[C@H](N)C(=O)O; Dap(Me) = CNC[C@H](N)C(=O)O; Pip = O=C(O)[C@@H]1CCCCN1; hSer = N[C@@H](CCO)C(=O)O; Carboxymethyl = O=C(O)C*; NMeA = CN[C@@H](C)C(=O)O; Orn = NCCC[C@H](N)C(=O)O; Dab = NCC[C@H](N)C(=O)O; Nva = CCC[C@H](N)C(=O)O; Dap = NC[C@H](N)C(=O)O

The target of this experiment is T1, PE-labeled human PD-L1-Ig binding to Jurkat cell line over-expressing human PD-1 (Jurkat-PD-1) (Homo sapiens, UniProt Q15116).
T1 construct: expressed in transfected cells; host or cells: Jurkat
T1 sequence (Q15116 25-288): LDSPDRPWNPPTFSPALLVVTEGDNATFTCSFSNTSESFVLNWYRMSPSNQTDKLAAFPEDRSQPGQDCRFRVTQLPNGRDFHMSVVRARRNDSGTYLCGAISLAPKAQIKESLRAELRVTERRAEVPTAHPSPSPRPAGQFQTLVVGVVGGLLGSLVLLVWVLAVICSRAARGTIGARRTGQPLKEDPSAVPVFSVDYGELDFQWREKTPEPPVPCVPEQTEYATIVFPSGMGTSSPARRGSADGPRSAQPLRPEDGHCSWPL
The experiment in a line: Jurkat-PD-1 Cell Binding High-Content Screening Assay (CBA): Method 1. The conditions noted are these: Jurkat-hPD-1 cells, PE-labeled PD-L1-Ig 20 nM final; read-out: Jurkat HPDL1 PD1 IC50 (uM) (Method 1).
With `CNC[C@@H]1NC(=O)CSC[C@@H](C(=O)N[C@@H](C)C(N)=O)NC(=O)[C@H](C(C)O)NC(=O)[C@H](C(C)C)NC(=O)[C@H](CC(C)C)NC(=O)[C@H](CCN)NC(=O)[C@@H](CC(C)C)NC(=O)[C@H](C)N(C)C(=O)[C@H](CCCNC(N)=O)NC(=O)[C@H](Cc2ccc(-c3ccccc3)cc2)NC(=O)[C@H](C(C)C)NC(=O)[C@H](Cc2c[nH]c3ccccc23)NC(=O)[C@H](CC(=O)O)NC(=O)[C@H](Cc2ccc(O)cc2)NC1=O` (stereo partly drawn) [Compound 2034] ({CH2CO}-[Dap(Me)]YDWV[Bip][Cit][NMeA][dL][Dab]LV[Thr(3ξ)]CA-NH2; thioether N-14), the half-maximal inhibitory concentration (IC50) amounted to 0.06 µM.
The result for `CC(C)C[C@@H]1NC(=O)[C@H](Cc2c[nH]c3ccccc23)NC(=O)[C@H](CC(=O)O)NC(=O)[C@H](Cc2ccc(O)cc2)NC(=O)[C@H](Cc2ccccc2)NC(=O)CSC[C@@H](C(=O)N[C@@H](C)C(N)=O)NC(=O)[C@H](CO)NC(=O)[C@H](C(C)C)NC(=O)[C@H](CC(C)C)NC(=O)[C@H](CC(N)=O)NC(=O)[C@@H](C)NC(=O)[C@H](C)N(C)C(=O)[C@H](C(C)C)NC(=O)[C@H](Cc2ccc(-c3cccc(Cl)c3)cc2)NC1=O` [Compound 1774] ({CH2CO}-FYDWL[X33]V[NMeA][dA]NLVSCA-NH2; thioether N-14) reads 0.05 µM.
Regarding `CCCCC[C@@H]1NC(=O)[C@H](Cc2ccc(-c3ccccc3)cc2)NC(=O)[C@H](C(C)C)NC(=O)[C@H](Cc2c[nH]c3ccccc23)NC(=O)[C@H](CC(=O)O)NC(=O)[C@H](Cc2ccc(O)cc2)NC(=O)[C@H](CN)NC(=O)CSC[C@@H](C(=O)N[C@@H](C)C(N)=O)NC(=O)[C@H](C(C)O)NC(=O)[C@H](C(C)C)NC(=O)[C@H](CC(C)C)NC(=O)[C@H](CCN)NC(=O)[C@@H](CC(C)C)NC(=O)[C@H](C)N(C)C1=O` (stereo partly drawn) [Compound 2082] ({CH2CO}-[Dap]YDWV[Bip][Ahp(2)][NMeA][dL][Dab]LV[Thr(3ξ)]CA-NH2; thioether N-14), the IC50 came to 0.07 µM.
Turning to `CCC[C@@H]1NC(=O)[C@H](Cc2ccc(-c3ccccc3)cc2)NC(=O)[C@H](C(C)C)NC(=O)[C@H](Cc2c[nH]c3ccccc23)NC(=O)[C@H](CC(=O)O)NC(=O)[C@H](Cc2ccc(O)cc2)NC(=O)[C@H](CC(N)=O)NC(=O)CSC[C@@H](C(=O)N[C@@H](C)C(N)=O)NC(=O)[C@H]([C@@H](C)O)NC(=O)[C@H](C(C)C)NC(=O)[C@H](CC(C)C)NC(=O)[C@H](CCN)NC(=O)[C@@H](CC(C)C)NC(=O)[C@H](C)N(C)C1=O` [Compound 1258] ({CH2CO}-NYDWV[Bip][Nva][NMeA][dL][Dab]LVTCA-NH2; thioether N-14), the IC50 amounted to 0.04 µM.
The result for `Cc1cccc(C[C@@H]2NC(=O)[C@H](CC(=O)O)NC(=O)[C@H](Cc3ccc(OCC(=O)O)cc3)NC(=O)[C@H](CC(N)=O)NC(=O)CSC[C@@H](C(N)=O)NC(=O)[C@H](CCC(=O)O)NC(=O)[C@H](C(C)C)NC(=O)[C@H](CC3CCCCC3)NC(=O)[C@H](CCN)NC(=O)[C@@H](CC(C)C)NC(=O)[C@H](C)N(C)C(=O)[C@H](Cc3ccc(OCC(=O)O)cc3)NC(=O)[C@H](Cc3ccc(-c4ccccc4)cc3)NC(=O)[C@H](Cc3ccc(OCC(=O)O)cc3)NC2=O)c1` [Compound 1667] ({CH2CO}-NY(Carboxymethyl)D[Phe(3-Me)]Y(Carboxymethyl)[Bip]Y(Carboxymethyl)[NMeA][dL][Dab][Cha]VEC-NH2; thioether N-14) reads 0.11 µM; that for `CCC(C)[C@@H]1NC(=O)[C@H](Cc2ccc(-c3ccccc3)cc2)NC(=O)[C@H](C(C)C)NC(=O)[C@H](Cc2c[nH]c3ccccc23)NC(=O)[C@H](CC(=O)O)NC(=O)[C@H](Cc2ccc(O)cc2)NC(=O)[C@H](Cc2cccs2)NC(=O)CSC[C@@H](C(=O)N2CCC[C@H]2C(N)=O)NC(=O)[C@H](C(C)O)NC(=O)[C@H](C(C)(C)O)NC(=O)[C@H](CC2CCCCC2)NC(=O)[C@H](CC(N)=O)NC(=O)[C@@H](CC(C)C)NC(=O)[C@H](C)N(C)C1=O` (stereo partly drawn) [Compound 2174] ({CH2CO}-[2Thi]YDWV[Bip][Ile(3ξ)][NMeA][dL]N[Cha][Val(3-OH)][Thr(3ξ)]CP-NH2; thioether N-14), 0.31 µM.
The result for `CC(C)C[C@@H]1NC(=O)[C@H](Cc2c[nH]c3ccccc23)NC(=O)[C@H](CC(=O)O)NC(=O)[C@H](Cc2ccc(O)cc2)NC(=O)[C@H](Cc2ccccc2)NC(=O)CSC[C@@H](C(=O)NCC(N)=O)NC(=O)[C@H](CO)NC(=O)[C@H](C(C)C)NC(=O)[C@H](CC(C)C)NC(=O)[C@H](CC(N)=O)NC(=O)[C@H](CCO)NC(=O)[C@H](C)N(C)C(=O)[C@H](C(C)C)NC(=O)[C@H](Cc2ccc(-c3ccccc3)cc2)NC1=O` [Compound 1814] ({CH2CO}-FYDWL[Bip]V[NMeA][hSer]NLVSCG-NH2; thioether N-14) reads 0.3 µM.
For `CC(C)C[C@@H]1NC(=O)[C@H](CCCNC(=N)N)NC(=O)[C@@H](Cc2ccc(F)c(F)c2)NC(=O)[C@H](C)N(C)C(=O)[C@H](CCCNC(=N)N)NC(=O)[C@H](Cc2ccc(-c3ccccc3)cc2)NC(=O)[C@H](C(C)C)NC(=O)[C@H](Cc2c[nH]c3ccccc23)NC(=O)[C@H](CC(=O)O)NC(=O)[C@H](Cc2ccc(O)cc2)NC(=O)[C@H](Cc2ccccc2)NC(=O)CSC[C@@H](C(=O)N[C@@H](C)C(N)=O)NC(=O)[C@H]([C@@H](C)O)NC(=O)[C@H](C(C)C)NC1=O` [Compound 1103] ({CH2CO}-FYDWV[Bip]R[NMeA][dPhe(3,4-F2)]RLVTCA-NH2; thioether N-14) the value was 0.69 µM.
On to `CC(C)C[C@@H]1NC(=O)[C@H](Cc2c[nH]c3ccccc23)NC(=O)[C@H](CC(=O)O)NC(=O)[C@H](Cc2ccc(CN)cc2)NC(=O)[C@H](Cc2ccccc2)NC(=O)CSC[C@@H](C(=O)N[C@@H](C)C(N)=O)NC(=O)[C@H](CO)NC(=O)[C@H](C(C)C)NC(=O)[C@H](CC(C)C)NC(=O)[C@H](CC(N)=O)NC(=O)[C@@H](C)NC(=O)[C@H](C)N(C)C(=O)[C@H](C(C)C)NC(=O)[C@H](Cc2ccc(-c3ccccc3)cc2)NC1=O` [Compound 1750] ({CH2CO}-F[Phe(4-CH2NH2)]DWL[Bip]V[NMeA][dA]NLVSCA-NH2; thioether N-14), for which the IC50 was 0.02 µM.
For `CC(C)C[C@@H]1NC(=O)[C@H](CCCNC(=N)N)NC(=O)[C@@H](CC(C)C)NC(=O)[C@H](C)N(C)C(=O)[C@H](CCCNC(=N)N)NC(=O)[C@H](Cc2ccc(-c3ccccc3)cc2)NC(=O)[C@H](C(C)C)NC(=O)[C@H](Cc2c[nH]c3ccccc23)NC(=O)[C@H](CC(=O)O)NC(=O)[C@H](Cc2ccc(F)cc2)NC(=O)[C@H](Cc2ccccc2)NC(=O)CSC[C@@H](C(=O)N[C@@H](C)C(N)=O)NC(=O)[C@H]([C@@H](C)O)NC(=O)[C@H](C(C)C)NC1=O` [Compound 1080] ({CH2CO}-F[Phe(4-F)]DWV[Bip]R[NMeA][dL]RLVTCA-NH2; thioether N-14) the value was 0.14 µM.
For `CC(C)C[C@@H]1NC(=O)[C@H](CCN)NC(=O)[C@@H](CC(C)C)NC(=O)[C@H](C)N(C)C(=O)[C@H](CCCNC(=N)N)NC(=O)[C@H](Cc2ccc(-c3ccccc3)cc2)NC(=O)[C@H](C(C)C)NC(=O)[C@H](Cc2c[nH]c3ccccc23)NC(=O)[C@H](CC(N)=O)NC(=O)[C@H](Cc2ccc(O)cc2)NC(=O)[C@H](CC(N)=O)NC(=O)CSC[C@@H](C(=O)N[C@@H](C)C(N)=O)NC(=O)[C@H]([C@@H](C)O)NC(=O)[C@H](C(C)C)NC1=O` [Compound 1186] ({CH2CO}-NYNWV[Bip]R[NMeA][dL][Dab]LVTCA-NH2; thioether N-14) the value was 0.93 µM; for `CC(C)C[C@@H]1NC(=O)[C@H](CCCNC(=N)N)NC(=O)[C@H](Cc2csc3ccccc23)NC(=O)[C@H](C)N(C)C(=O)[C@H](CCCN)NC(=O)[C@H](Cc2ccc(-c3ccccc3)cc2)NC(=O)[C@H](C(C)C)NC(=O)[C@H](Cc2c[nH]c3ccccc23)NC(=O)[C@H](CC(=O)O)NC(=O)[C@H](Cc2ccc(O)cc2)NC(=O)[C@H](Cc2ccccc2)NC(=O)CSC[C@@H](C(=O)N[C@@H](C)C(N)=O)NC(=O)[C@H]([C@@H](C)O)NC(=O)[C@H](C(C)C)NC1=O` [Compound 1124] ({CH2CO}-FYDWV[Bip][Orn][NMeA][Bta]RLVTCA-NH2; thioether N-14), 0.69 µM; for `CC(C)C[C@@H]1NC(=O)[C@H](Cc2c[nH]c3ccccc23)NC(=O)[C@H](CC(=O)O)NC(=O)[C@H](Cc2ccc(O)cc2)NC(=O)[C@H](Cc2cnc[nH]2)NC(=O)CSC[C@@H](C(=O)NCC(N)=O)NC(=O)[C@H](CO)NC(=O)[C@H](C(C)C)NC(=O)[C@H](CC(C)C)NC(=O)[C@H](CC(N)=O)NC(=O)[C@H](CC(N)=O)NC(=O)[C@H](C)N(C)C(=O)[C@H](C(C)C)NC(=O)[C@H](Cc2ccc(-c3ccccc3)cc2)NC1=O` [Compound 1808] ({CH2CO}-HYDWL[Bip]V[NMeA]NNLVSCG-NH2; thioether N-14), 0.86 µM.
Regarding `CC[C@H](C)[C@@H]1NC(=O)[C@H](Cc2ccc(-c3ccccc3)cc2)NC(=O)[C@H](C(C)C)NC(=O)[C@H](Cc2cccc(C)c2)NC(=O)[C@H](CC(=O)O)NC(=O)[C@H](Cc2ccc(C(=O)O)cc2)NC(=O)[C@H](Cc2ccc(OCC(=O)O)cc2)NC(=O)CSC[C@@H](C(=O)N[C@@H](C)C(N)=O)NC(=O)[C@H]([C@@H](C)O)NC(=O)[C@H](C(C)C)NC(=O)[C@H](CC(C)C)NC(=O)[C@H](CCN)NC(=O)[C@@H](CC(C)C)NC(=O)[C@H](C)N(C)C1=O` [Compound 1572] ({CH2CO}-Y(Carboxymethyl)[Phe(4-COOH)]D[Phe(3-Me)]V[Bip]I[NMeA][dL][Dab]LVTCA-NH2; thioether N-14), the IC50 amounted to 0.01 µM.
The result for `Cc1cccc(C[C@@H]2NC(=O)[C@H](CC(=O)O)NC(=O)[C@H](Cc3ccc(OCC(=O)O)cc3)NC(=O)[C@H](CN)NC(=O)CSC[C@@H](C(N)=O)NC(=O)[C@H](CC(=O)O)NC(=O)[C@H](C(C)C)NC(=O)[C@H](CC3CCCCC3)NC(=O)[C@H](CCN)NC(=O)[C@@H](CC(C)C)NC(=O)[C@@H]3CCCCN3C(=O)[C@H](Cc3ccc(OCC(=O)O)cc3)NC(=O)[C@H](Cc3ccc(-c4ccccc4)cc3)NC(=O)[C@H](Cc3ccc(OCC(=O)O)cc3)NC2=O)c1` [Compound 1893] ({CH2CO}-[Dap]Y(Carboxymethyl)D[Phe(3-Me)]Y(Carboxymethyl)[Bip]Y(Carboxymethyl)[Pip][dL][Dab][Cha]VDC-NH2; thioether N-14) reads 0.26 µM.

Usually IC50 stands for the concentration that inhibits the measured activity by half.
